Assay results reported in patent publication US7329520B2, “Fructosyl peptide oxidase and utilization thereof” (Daiichi Pure Chemicals Co., Ltd., priority 2002, dated 2008).
No end group written: not given here.

Tests used:
[1] = system: Zingiber officinale-originating enzyme; experiment: Hydrogen peroxide production, DA-64 color development; type: biochemical; conditions: lmM substrate, enzyme 0.3 u/mL, 30 minutes at 50° C., pH 8.0, DA-64/POD
Procedure: To a 50 mM phosphate buffer (pH 8.0) containing 0.5 mM DA-64 (product of Wako Pure Chemical Industries, Ltd.), 200-u/mL POD, 0.1% sodium azide, and lmM fructosyl valine or fructosyl peptide (SEQ ID NOs: 1 to 5) (all being final concentrations), a Zingiber officinale-originating enzyme solution was added in an amount of 0.3 u/mL (final concentration), and the mixture was treated for 30 minutes at 50° C. Absorbance at 700 nm was measured by employment of purified water as a control. Color development of DA-64 was observed (Table 1). Thus, hydrogen peroxide was confirmed to be produced.

[2] = system: enzyme originating from a plant belonging to the family Zingiberaceae; experiment: Enzyme activity on substrates by glucosone production (substrate specificity, Km); type: biochemical, Zingiber officinale; conditions: Lineweaver-Burk's plots; glucosone production at 37° C., pH 8.0
Procedure: The method for determining activity of the enzyme of the present invention is exemplified by a method in which the enzyme is reacted with a substrate fructosyl peptide, to thereby produce non-fructosyl peptide, glucosone, and hydrogen peroxide, and the amount of any one of these compounds produced through the enzyme reaction is measured. Next will be described an example method of measuring the amount of glucosone produced. Hereinafter, unless otherwise specified, the substrate employed for determining activity of the enzyme of the present invention is fructosyl valyl histidine. One unit (U) of the titer of the enzyme is defined as the amount of enzyme which produces 1 μmol glucosone in one minute as measured when the substrate is fructosyl valyl histidine. […]
To the above reaction mixture, a mixture which has been prepared in advance by mixing 200 mM acetate buffer (pH 6.0) (750 μL), 4000-u/mL glucose oxidase (Toyobo Co., Ltd.) (450 μL), 0.15% 4-aminoantipyrine (300 μL), 0.3% TOOS (Dojindo Laboratories) (300 μL), 500-u/mL peroxidase (Toyobo Co., Ltd.: Type III) (300 μL), and 1% sodium azide (300 μL) is added, followed by heating for 10 minutes at 37° C. Thereafter, absorbance is measured at 550 nm. […] Thus, the amount (in micromoles) of glucosone produced in one minute is calculated, and the obtained value is used as the activity unit of the enzyme solution. […]

[3] = system: enzyme originating from Zingiber officinale; experiment: Measurement of fructosyl peptide through glucosone, absorbance at 550 nm; type: biochemical; conditions: 0 to 40 μM substrate, enzyme 1.6 u/mL (30 μL), 16 hours at 37° C.
Procedure: 200 mM Phosphate buffer (pH 8.0) (150 μL), purified water (360 μL), and each of aqueous fructosyl valyl histidine solutions (60 μL) having different concentrations were mixed together so that the final fructosyl valyl histidine concentrations after reaction fell between 0 and 40 μM. The reaction was mixed with a solution of the enzyme originating from Zingiber officinale (1.6 u/mL) (30 μL), and the resultant mixture was allowed to react for 16 hours at 37° C. Subsequently, a mixture which had been prepared in advance by mixing 200 mM acetate buffer (pH 6.0) (750 μL), 4000-u/mL glucose oxidase (Toyobo Co., Ltd.) (450 μL), 0.15% 4-aminoantipyrine (300 μL), 0.3% TOOS (Dojindo Laboratories) (300 μL), 500-u/mL peroxidase (Toyobo Co., Ltd.: Type III) (300 μL), and 1% sodium azide (300 μL) was added to the reaction mixture, and the resultant mixture was treated for 10 minutes at 37° C., followed by measuring absorbance at 550 nm (FIG. 7).

[4] = system: Zingiberaceae-plant-origin crude enzyme solution; experiment: Defructosylation of fructosyl peptide, analysed by capillary electrophoresis; type: biochemical, Zingiber officinale; conditions: reaction mixture 1, 16 hours at 37° C., pH 8.0, control peak area 32 mABU×sec
Procedure: (i) A 100 mM phosphate buffer (pH 8.0) (100 μL), a 500 μM aqueous solution (40 μL) of the N-terminal-valine fructosylated peptide having an amino acid sequence represented by SEQ ID NO: 2 (f-VHL: products of Bioquest), purified water (20 μL), and the Zingiberaceae-plant-origin crude enzyme solution (40 μL) prepared in Example 1 were mixed together, and the mixture was caused to react for 16 hours at 37° C. The reaction mixture was subjected to ultrafiltration (molecular weight: 10,000), and the filtrate was collected (reaction mixture 1). The reaction mixture 1 was analyzed through use of a capillary electrophoresis apparatus CAPI-3200 (product of Otsuka Electronics Co., Ltd) (electrophoresis buffer: 150 mM phosphate buffer (pH 2.0), voltage: 15 kV, detection wavelength: 210 nm) in terms of peak position and peak area.
As a control, purified water was added instead of the crude enzyme solution, and the resultant mixture was allowed to react under similar conditions, to thereby prepare a filtrate (control solution 1). The analysis results obtained from the control solution 1 were compared with those of the reaction mixture 1.
The fructosyl peptide employed in the enzyme reaction or control test had been mixed with corresponding non-fructosylated peptide. The presence or absence of the enzyme activity was determined through comparison of the two peaks.

| Compound | Absorbance at 700 nm [1] [mAbs] | peak attributed to f-VHL (capillary electrophoresis) [4] | Km [2] [µM] | absorbance at 550 nm against substrate concentration [3] |
| --- | --- | --- | --- | --- |
| CC(C)[C@H](NC1(CO)O[C@H](CO)[C@@H](O)[C@@H]1O)C(=O)N[C@@H](Cc1c[nH]cn1)C(=O)O (some centres unmarked) [f-VH, fructosyl valyl histidine] | 735 |  | 1200 | increase in accordance with the increase in concentration |
| f-VHL: N-terminal-valine fructosylated peptide having an amino acid sequence represented by SEQ ID NO: 2; fructosyl tripeptide (fructosyl-Val-His-Leu) | 570 | does not exist |  |  |
| f-VHLTP: N-terminal-valine fructosylated pentapeptide substrate (SEQ ID NO: 4) (fructosyl-VHLTP) | 198 |  |  |  |

The next lines start with results.

| Absorbance at 700 nm [1] [mAbs] | peak attributed to f-VHL (capillary electrophoresis) [4] | Compound | Km [2] [µM] | absorbance at 550 nm against substrate concentration [3] |
| --- | --- | --- | --- | --- |
| 558 |  | f-VHLT: N-terminal-valine fructosylated tetrapeptide substrate (SEQ ID NO: 3) (fructosyl-VHLT) |  |  |
| 223 |  | f-VHLTPE: N-terminal-valine fructosylated hexapeptide substrate (SEQ ID NO: 5) (fructosyl-VHLTPE) |  |  |
